Test results taken from PubChem BioAssay AID274 (DTP/NCI, 2004).
Values joined by “and” are separate entries in the source; they are usually repeats but may differ in a detail not shown here. Equal entries are not always repeated. Inconclusive results and toxic doses are left out.

Test system: BDF1 mice, Lewis lung carcinoma iv, survival T/C
Test: NCI In Vivo Anticancer Drug Screen. Data for tumor model Lewis Lung Carcinoma (intravenous) in B6D2F1 (BDF1) mice
Settings: endpoint: median survival time, higher = longer survival
Procedure: The antitumor activity of compounds was measured in mice bearing transplantable tumors. Survival or tumor size were measured and the results are expressed as the measurement made in the treated group (T) divided by the measurement made in the vehicle treated control group (C). The tumor model used in this assay is Lewis Lung Carcinoma (intravenous) in B6D2F1 (BDF1) mice

[1] = dose: 6.25 mg/kg/injection, schedule: Q01DX009 (ip), vehicle: Klucel (hydroxypropylcellulose) (HPC)
[2] = dose: 12.5 mg/kg/injection, schedule: Q01DX009 (ip), vehicle: Klucel (hydroxypropylcellulose) (HPC)
[3] = dose: 25.0 mg/kg/injection, schedule: Q01DX009 (ip), vehicle: Klucel (hydroxypropylcellulose) (HPC)
[4] = dose: 50.0 mg/kg/injection, schedule: Q01DX009 (ip), vehicle: Klucel (hydroxypropylcellulose) (HPC)
[5] = dose: 12.5 mg/kg/injection, schedule: Q01DX009 (ip), vehicle: saline with Tween-80
[6] = dose: 25.0 mg/kg/injection, schedule: Q01DX009 (ip), vehicle: saline with Tween-80
[7] = dose: 50.0 mg/kg/injection, schedule: Q01DX009 (ip), vehicle: saline with Tween-80
[8] = dose: 100.0 mg/kg/injection, schedule: Q01DX009 (ip), vehicle: saline with Tween-80
[9] = dose: 200.0 mg/kg/injection, schedule: Q01DX009 (ip), vehicle: saline with Tween-80
[10] = dose: 400.0 mg/kg/injection, schedule: Q01DX009 (ip), vehicle: saline with Tween-80
[11] = dose: 0.75 mg/kg/injection, schedule: Q01DX009 (ip), vehicle: saline
[12] = dose: 1.5 mg/kg/injection, schedule: Q01DX009 (ip), vehicle: saline
[13] = dose: 100.0 mg/kg/injection, schedule: Q01DX009 (ip), vehicle: Klucel (hydroxypropylcellulose) (HPC)
[14] = dose: 200.0 mg/kg/injection, schedule: Q01DX009 (ip), vehicle: Klucel (hydroxypropylcellulose) (HPC)
[15] = dose: 400.0 mg/kg/injection, schedule: Q01DX009 (ip), vehicle: Klucel (hydroxypropylcellulose) (HPC)

C/C=C/C=C/c1cc2cc3c(c(O)c2c(=O)[nH]1)C1(CC3)C(O)=c2c(=O)c3c(=O)cc(OC)c(=O)c=3c(=O)c2=C1O (stereo not given)
T/C (dose: 0.06 mg/kg/injection, schedule: Q01DX009 (ip), vehicle: DMSO): 97 % of control | T/C (dose: 0.12 mg/kg/injection, schedule: Q01DX009 (ip), vehicle: DMSO): 102 % of control | T/C (dose: 0.25 mg/kg/injection, schedule: Q01DX009 (ip), vehicle: DMSO): 95 % of control and 101 % of control | T/C (dose: 0.5 mg/kg/injection, schedule: Q01DX009 (ip), vehicle: DMSO): 102 % of control | T/C (dose: 16.0 micrograms/kg/injection, schedule: Q01DX009 (ip), vehicle: DMSO): 102 % of control | T/C (dose: 31.0 micrograms/kg/injection, schedule: Q01DX009 (ip), vehicle: DMSO): 93 % of control | T/C (dose: 62.0 micrograms/kg/injection, schedule: Q01DX009 (ip), vehicle: DMSO): 91 % of control | T/C (dose: 125.0 micrograms/kg/injection, schedule: Q01DX009 (ip), vehicle: DMSO): 102 % of control

CC(=O)NC(CCc1ccc(Cl)c(Cl)c1)c1cccc(O)c(=O)c1 (stereo not given)
T/C [1]: 97 % of control | T/C [2]: 99 % of control | T/C [3]: 95 % of control | T/C [4]: 96 % of control

O=c1cc(CCl)[nH]nc1CCl
T/C (dose: 3.12 mg/kg/injection, schedule: Q01DX009 (ip), vehicle: saline with Tween-80): 98 % of control | T/C (dose: 6.25 mg/kg/injection, schedule: Q01DX009 (ip), vehicle: saline with Tween-80): 96 % of control | T/C [5]: 96 % of control

CC(=O)Nc1ccc(Nc2ccc(C(=C3C=CC(=[N+](C)CCC#N)C=C3)c3ccc(N(C)CCC#N)cc3)cc2)cc1
T/C [5]: 101 % of control | T/C [6]: 110 % of control

CCCC(=O)O
T/C (dose: 12.5 mg/kg/injection, schedule: Q01DX009 (ip), vehicle: saline): 93 % of control | T/C (dose: 25.0 mg/kg/injection, schedule: Q01DX009 (ip), vehicle: saline): 104 % of control | T/C (dose: 50.0 mg/kg/injection, schedule: Q01DX009 (ip), vehicle: saline): 95 % of control | T/C (dose: 100.0 mg/kg/injection, schedule: Q01DX009 (ip), vehicle: saline): 112 % of control

NC(Cc1ccc(N(CCCl)CCCl)cc1)C(=O)O (stereo not given)
T/C (dose: 0.5 mg/kg/injection, schedule: Q01DX009 (ip), vehicle: Klucel (hydroxypropylcellulose) (HPC)): 94 % of control | T/C (dose: 1.0 mg/kg/injection, schedule: Q01DX009 (ip), vehicle: Klucel (hydroxypropylcellulose) (HPC)): 97 % of control | T/C (dose: 2.0 mg/kg/injection, schedule: Q01DX009 (ip), vehicle: Klucel (hydroxypropylcellulose) (HPC)): 122 % of control

CC(=O)OCC1OC(OC(C)=O)C(NC(=O)N(CCCl)N=O)C(OC(C)=O)C1OC(C)=O (stereo not given)
T/C (dose: 0.75 mg/kg/injection, schedule: Q01DX009 (ip), vehicle: Klucel (hydroxypropylcellulose) (HPC)): 105 % of control | T/C (dose: 1.5 mg/kg/injection, schedule: Q01DX009 (ip), vehicle: Klucel (hydroxypropylcellulose) (HPC)): 105 % of control | T/C (dose: 3.0 mg/kg/injection, schedule: Q01DX009 (ip), vehicle: Klucel (hydroxypropylcellulose) (HPC)): 110 % of control | T/C (dose: 6.0 mg/kg/injection, schedule: Q01DX009 (ip), vehicle: Klucel (hydroxypropylcellulose) (HPC)): 110 % of control

O=C(N/N=C/c1ccccc1O)c1ccncc1
T/C (dose: 108.0 mg/kg/injection, schedule: Q01DX007 (ip), vehicle: Klucel (hydroxypropylcellulose) (HPC)): 95 % of control | T/C (dose: 154.4 mg/kg/injection, schedule: Q01DX007 (ip), vehicle: Klucel (hydroxypropylcellulose) (HPC)): 99 % of control | T/C (dose: 220.5 mg/kg/injection, schedule: Q01DX007 (ip), vehicle: Klucel (hydroxypropylcellulose) (HPC)): 89 % of control | T/C (dose: 315.0 mg/kg/injection, schedule: Q01DX007 (ip), vehicle: Klucel (hydroxypropylcellulose) (HPC)): 89 % of control

S=P(N1CC1)(N1CC1)N1CC1
T/C (dose: 1.0 mg/kg/injection, schedule: Q01DX009 (ip), vehicle: saline with Tween-80): 106 % of control and 110 % of control and 116 % of control | T/C (dose: 2.0 mg/kg/injection, schedule: Q01DX009 (ip), vehicle: saline with Tween-80): 113 % of control (2×) and 116 % of control | T/C (dose: 4.0 mg/kg/injection, schedule: Q01DX009 (ip), vehicle: saline with Tween-80): 118 % of control and 119 % of control and 123 % of control | T/C (dose: 8.0 mg/kg/injection, schedule: Q01DX009 (ip), vehicle: saline with Tween-80): 100 % of control and 110 % of control | T/C (dose: 16.0 mg/kg/injection, schedule: Q01DX009 (ip), vehicle: saline with Tween-80): 112 % of control

Cc1nc(N)nc(N)c1-c1ccc(Cl)c(Cl)c1
T/C (dose: 0.31 mg/kg/injection, schedule: Q01DX009 (ip), vehicle: saline): 108 % of control | T/C (dose: 0.63 mg/kg/injection, schedule: Q01DX009 (ip), vehicle: saline): 109 % of control | T/C (dose: 1.25 mg/kg/injection, schedule: Q01DX009 (ip), vehicle: saline): 113 % of control | T/C (dose: 2.5 mg/kg/injection, schedule: Q01DX009 (ip), vehicle: saline): 120 % of control | T/C (dose: 5.0 mg/kg/injection, schedule: Q01DX009 (ip), vehicle: saline): 109 % of control

COc1ccc(OC)c(/C=C/c2ccnc3ccccc23)c1
T/C [5]: 94 % of control and 100 % of control | T/C [6]: 104 % of control and 117 % of control | T/C [7]: 94 % of control and 112 % of control | T/C [8]: 102 % of control and 109 % of control | T/C [9]: 101 % of control and 109 % of control | T/C [10]: 104 % of control and 119 % of control

NC(=S)n1cccn1
T/C [7]: 99 % of control | T/C [8]: 94 % of control | T/C [9]: 103 % of control

CCCCCc1cc(O)c2c(c1)OC(C)(C)[C@@H]1CCC(C)=C[C@@H]21
T/C (dose: 200.0 mg/kg/injection, schedule: Q01DX009 (ip), vehicle: other): 89 % of control | T/C (dose: 800.0 mg/kg/injection, schedule: Q01DX009 (ip), vehicle: other): 88 % of control

Nc1ncn(C2OC(CO)C(O)C2O)c(=O)n1 (stereo not given)
T/C (dose: 0.37 mg/kg/injection, schedule: Q01DX009 (ip), vehicle: saline): 100 % of control | T/C [11]: 113 % of control and 119 % of control | T/C [12]: 109 % of control and 115 % of control | T/C (dose: 12.5 mg/kg/injection, schedule: Q01DX009 (ip), vehicle: suspension in saline): 115 % of control | T/C (dose: 25.0 mg/kg/injection, schedule: Q01DX009 (ip), vehicle: suspension in saline): 124 % of control | T/C (dose: 400.0 mg/kg/injection, schedule: Q01DX009 (ip), vehicle: suspension in saline): 175 % of control

O=C(CCl)N1c2ccccc2Oc2cc3ccccc3cc21
T/C [8]: 107 % of control | T/C [9]: 116 % of control | T/C [10]: 111 % of control

O=C1NC(O)c2ccccc2O1 (stereo not given)
T/C [5]: 108 % of control | T/C [6]: 103 % of control | T/C [7]: 105 % of control | T/C [8]: 101 % of control | T/C [9]: 112 % of control | T/C [10]: 102 % of control

C=CCNc1ccc(C)cc1
T/C [13]: 86 % of control

O=C(NCCN1CC1)C(=O)NCCN1CC1
T/C (dose: 0.38 mg/kg/injection, schedule: Q01DX009 (ip), vehicle: saline): 108 % of control | T/C [11]: 110 % of control | T/C [12]: 120 % of control | T/C (dose: 3.0 mg/kg/injection, schedule: Q01DX009 (ip), vehicle: saline): 101 % of control

Cc1cn(C2CC(O)C(CO)O2)c(=O)[nH]c1=O (stereo not given)
T/C [5]: 89 % of control | T/C [7]: 88 % of control | T/C [8]: 94 % of control | T/C [9]: 98 % of control

CN(C)c1ccc2c(SCC(=O)OCC(=O)[C@@]3(O)CC[C@H]4[C@@H]5CCC6=CC(=O)C=C[C@]6(C)[C@H]5C(=O)C[C@@]43C)c3ccc(N(C)C)cc3nc2c1
T/C [3]: 104 % of control | T/C [4]: 106 % of control | T/C [13]: 107 % of control | T/C [14]: 102 % of control | T/C [15]: 107 % of control

O=C1c2ccccc2C(=O)c2c3c(cc(NCCNCCO)c21)N(CCO)CCN3
T/C (dose: 50.0 mg/kg/injection, schedule: Q01DX009 (ip), vehicle: DMSO): 108 % of control

O=Cc1ccc(C=O)c(Cl)c1
T/C [4]: 101 % of control | T/C [13]: 100 % of control | T/C [14]: 105 % of control | T/C [15]: 95 % of control

CN(C)c1ccc2c(N(C)C)cc(N(C)C)nc2c1
T/C (dose: 1.56 mg/kg/injection, schedule: Q01DX009 (ip), vehicle: Klucel (hydroxypropylcellulose) (HPC)): 98 % of control | T/C (dose: 3.13 mg/kg/injection, schedule: Q01DX009 (ip), vehicle: Klucel (hydroxypropylcellulose) (HPC)): 95 % of control | T/C [1]: 102 % of control | T/C [2]: 99 % of control | T/C [3]: 111 % of control

CCCCCCCCCCCCCCCC[N+]1(C)CCN(SN2CC[N+](C)(CCCCCCCCCCCCCCCC)CC2)CC1
T/C [6]: 109 % of control | T/C [7]: 100 % of control | T/C [8]: 104 % of control
